According to PMC7722660 (Neuropsychopharmacology Reports, 2020):
Values joined by “and” are separate entries in the source; they are usually repeats but may differ in a detail not shown here. Equal values may be shown once.

Assays:
[1] = tested on: 55 molecular targets, including neurotransmitter receptors, ion channels, and transporters; test: Cerep ExpresSProfile off-target panel; format: binding; conditions: 10 μmol/L
rats [2] = test: Rat EEG; format: in vivo; conditions: 100 mg/kg p.o., vs vehicle
[3] = Brain penetration: plasma and brain concentrations in rats; conditions: rat, in vivo, po
[4] = Spontaneous locomotor activity in rats; format: in vivo, rat; conditions: up to 100 mg/kg, data not shown
[5] = Pharmacokinetic study in rats; format: in vivo; conditions: rat, plasma
OX2 receptor [6] = conditions: agonist ref 21; cited from earlier work
rats [7] = conditions: cited from earlier work
OX2 receptor [8] = conditions: cited from earlier work

## COc1c(C#N)ccnc1N1C2CCC1CN(C(=O)c1cccnc1-n1cccn1)C2 [SDM‐878, 2‐(3‐(2‐(1H‐pyrazol‐1‐yl)nicotinoyl)‐3,8‐diazabicyclo[3.2.1]octan‐8‐yl)‐3‐methoxyisonicotinonitrile]
[1]
  inhibitory effects on 55 other molecular targets: ≤ 50%
Rats [2]
  effect on duration of REM sleep: did not observe a significant effect
Rats [2]; P < .05
  effect on duration of NREM sleep: significantly increased
  effect on time spent in wakefulness: significantly decreased
  effect on total sleep: significantly increased
[3]; 30 mg/kg
  concentration at 30 min: 110 ng/mL and 28 ng/g
[3]; 100 mg/kg
  concentration at 30 min: 601 ng/mL and 198 ng/g
[4]
  effect on spontaneous locomotor activity: did not affect
[5]; iv, 1 mg/kg
  half-life: 22.2 min
[5]; po, 30 mg/kg
  Cmax: 1180 ng/mL
  Tmax: 15 min
  half-life: 25.8 min

## [Ala^11, D‐Leu^15]‐orexin‐B [ADL‐OXB]
OX2 receptor [6]
  selectivity for the OX2 receptor over the OX1 receptor: 400 fold

## Cc1cc(C)nc(N2CC3CN(C(=O)c4c(F)cccc4-n4nccn4)CC3C2)n1 (stereo not shown) [JNJ‐42847922]
Rats [7]; rats ref 19, 23
  effect on REM sleep: did not exert a significant effect
Rats [7]; rats, first 2 hours of sleep ref 19, 23
  effect on NREM sleep time: prolonged

## orexin‐B
OX2 receptor [8]
  fold higher affinity for the OX2 receptor than for the OX1 receptor: 10 fold
